Results from patent US20190119348A1, “PARATHYROID HORMONE RECEPTOR 1 ANTAGONIST AND INVERSE AGONIST POLYPEPTIDES AND METHODS OF THEIR USE” (The General Hospital Corporation, priority 2016, published 2019).
pIC50: −log10 of the molar value. Like-named read-outs stand apart in the source and are kept apart here. Where a SMILES comes first, the peptide text is derived from it. [ ]: non-standard residue; d: D form.

Experiments:
PTHR1 (hPTHR1) = biological target: T1, PTHR1 (hPTHR1) (Homo sapiens, UniProt Q03431); assay: Radioligand competition binding in GP-2.3 cells; conditions: for pIC50: means of four experiments
T1 construct: expressed in transfected cells; host or cells: GP-2.3 (HEK-293 stably transfected with hPTHR1 and GloSensor)
T1 sequence (Q03431 27-593): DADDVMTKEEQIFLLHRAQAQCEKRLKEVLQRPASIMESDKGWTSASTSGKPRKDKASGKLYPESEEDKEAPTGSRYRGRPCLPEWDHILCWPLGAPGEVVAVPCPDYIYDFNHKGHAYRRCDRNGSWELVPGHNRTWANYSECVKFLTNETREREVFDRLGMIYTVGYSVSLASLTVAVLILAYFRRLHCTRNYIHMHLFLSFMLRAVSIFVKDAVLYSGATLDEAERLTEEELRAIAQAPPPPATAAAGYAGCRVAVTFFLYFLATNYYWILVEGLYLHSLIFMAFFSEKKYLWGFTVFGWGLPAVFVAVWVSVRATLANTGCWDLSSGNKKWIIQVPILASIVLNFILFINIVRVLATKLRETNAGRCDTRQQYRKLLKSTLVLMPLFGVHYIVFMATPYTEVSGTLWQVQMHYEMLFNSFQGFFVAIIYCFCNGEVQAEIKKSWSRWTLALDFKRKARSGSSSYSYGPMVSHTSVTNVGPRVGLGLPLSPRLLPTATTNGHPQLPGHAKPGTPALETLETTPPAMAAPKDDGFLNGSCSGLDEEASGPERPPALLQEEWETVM
Protocol: Intact cell binding reactions were performed in 96-well plates, and, following incubation, the cells were lysed with 1N NaOH, and the lysate was counted for gamma radiation. For membrane dissociation assays, reactions were assembled in 15 cc tubes, and, at times following membrane addition (t=0), aliquots were withdrawn and filtered through a well of a vacuum filtration 96-well plate, rinsed, and, after washing, the filters were removed and counted for gamma irradiation. […] Curves were fit to the data using a four-parameter sigmoidal dose-response equation.
Pharmacological properties of the ligands were assessed in cells expressing the PTHR1 and the GloSensor™ cAMP reporter. The assays used GP-2.3 cells, derived from HEK293 cells by stable transfection with the hPTHR1 and GloSensor™, as well as SGS-72 cells, which are derived from the human osteosarcoma cell line, Saos-2, in which is endogenously expressed the hPTHR1, by stable transfection with GloSensor™. Binding of representative polypeptides to the PTHR1 was assessed in GP-2.3 cells by radioligand competition methods (FIGS. 1A and 1B, Table 3).
The assays were performed in GP-2.3 cells with the two tracer ^125I-radioligands shown; values are half-maximal inhibitory concentration (pIC50) and corresponding nanomolar value (below) derived from curve fitting ligand dose-response data. Data are means of four experiments.

wild-type PTHR [1] = biological target: T2, wild-type PTHR (Mus musculus, UniProt P41593); assay: Mouse transient model of hyperparathyroidism (PEG-PTH(1-35)-induced hypercalcemia), blood Ca2+; type: in vivo; conditions: 10-week old female CD1 mice; PEG-PTH(1-35)-1925 50 nmol/kg i.v. at −24 h; peptide 500 nmol/kg at 0 h; P<0.05 vs vehicle at 2 h
T2 construct: Wild-type mice were injected with a PTH agonist analog; from tissue; host or cells: whole animal, wild-type mice (C57BL/6J per methods)
T2 sequence (P41593 27-591): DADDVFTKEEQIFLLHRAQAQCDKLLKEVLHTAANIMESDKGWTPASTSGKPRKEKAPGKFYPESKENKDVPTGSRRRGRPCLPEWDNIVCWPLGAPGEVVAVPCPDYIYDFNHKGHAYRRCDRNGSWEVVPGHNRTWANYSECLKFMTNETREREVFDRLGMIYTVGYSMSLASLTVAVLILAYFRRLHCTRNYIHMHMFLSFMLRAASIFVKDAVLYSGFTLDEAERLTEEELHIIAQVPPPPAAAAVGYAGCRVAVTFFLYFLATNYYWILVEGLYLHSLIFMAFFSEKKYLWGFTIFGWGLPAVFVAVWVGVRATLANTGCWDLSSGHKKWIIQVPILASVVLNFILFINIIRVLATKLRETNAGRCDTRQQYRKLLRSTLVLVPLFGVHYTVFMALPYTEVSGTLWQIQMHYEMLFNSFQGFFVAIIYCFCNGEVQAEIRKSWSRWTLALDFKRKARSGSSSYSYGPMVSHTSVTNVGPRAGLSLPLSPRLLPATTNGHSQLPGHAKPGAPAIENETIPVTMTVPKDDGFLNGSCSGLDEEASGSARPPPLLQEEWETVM
Protocol: (§1) Mice were injected IV via the tail vein or subcutaneously with ligands in vehicle (0.05% Tween80; 10 mM citrate; 150 mM NaCl; pH 5.0) to give the intended final ligand dose (e.g. 50 nmol/kg body weight). At times immediately before (t=0) and after injection, tail vein blood was collected and analyzed for blood ionized calcium (Ca^2+) measured with a RAPIDLAB 348 analyzer (SIEMENS Healthcare Diagnostic, United Kingdom).
To study antagonism at the wild-type PTHR under conditions of excess PTH, as occurs in humans with hyperparathyroidism, we developed a mouse non-genetic, transient model of hyperparathyroidism. Wild-type mice were injected with a PTH agonist analog, PEG-PTH(1-35), which induces hypercalcemia lasting between 24 and 72 hours after a single s.c. injection (see Guo et al., Journal of Bone and Mineral Research, 32:86-98, 2017). Antagonists were injected after 24 hours following the injection of PEG-PTH(1-35) and effects on blood Ca^2+ levels were measured. The results are illustrated in FIGS. 12A and 12B.

wild-type PTHR [2] = biological target: T2, wild-type PTHR; assay: Mouse model of hypercalcemia of malignancy (co-injection with PTHrP(1-36)), blood Ca2+; type: in vivo; conditions: 10-week old female CD1 mice; i.v. co-injection with PTHrP(1-36)-1880 10 nmol/kg; peptide 500 nmol/kg
Protocol: as §1
To study antagonism at the wild-type PTHR under conditions of excess PTHrP, as occurs in humans with hypercalcemia of malignancy, we co-injected wild-type mice with PTHrP(1-36) and a test antagonist and measured effects on blood Ca^2+ levels. The results are illustrated in FIG. 13.

PTHR1 = biological target: T3, PTHR1 (Mus musculus, UniProt P41593); assay: Blood Ca2+ in wild-type mice after co-injection with PTH(1-34); type: in vivo; parameters: from tissue; host or cells: whole animal, wild-type mice (C57BL/6J per methods); conditions: intravenous co-injection with PTH(1-34)
T3 sequence (P41593 27-591): T2 sequence (P41593 27-591)
From the text: Wilde-type, ca. 10-week old male C57BL/6J mice were purchased from the Charles River Laboratories (Wilmington, Mass., USA). The origin and method of breeding of Col1-H223R “Jansen's” transgenic mice is described by Calvi et al. (J. Clin. Invest., 107:277-286, 2001). Mice were maintained in facilities operated by the Center for Comparative Research of the Massachusetts General Hospital, and acclimated in the facilities for seven days prior to being used for study. All experimental procedures were approved by the MGH Institutional Animal Care and Use Committee (IACUC). In each study, animals were assigned randomly to treatment groups. Where possible, power calculations established that the number of animals used per study group was sufficient to detect statistically significant differences in intended primary experimental outcomes (i.e., changes in serum Ca and Pi).
as §1

- apparent PTHR1 affinity compared with dTrp^12-PTH(7-34)-1894 (PTHR1 (hPTHR1); radioligand competition): at least as strong
- pIC50 (PTHR1 (hPTHR1); tracer ^125I-PTH(1-34), read-out: half-maximal inhibitory concentration, corresponding nanomolar value, tracer ^125I-PTH(1-34)): 7.65
- pIC50 (PTHR1 (hPTHR1); tracer ^125I-PTHrP(5-36), read-out: half-maximal inhibitory concentration, corresponding nanomolar value, tracer ^125I-PTHrP(5-36)): 7.75
- effect on blood Ca^2+ (FIG. 12A) (wild-type PTHR [1]): reduced blood Ca^2+
SMILES: CC[C@H](C)[C@H](N)C(=O)N[C@@H](CCC(N)=O)C(=O)N[C@@H](CC(C)C)C(=O)N[C@@H](CCSC)C(=O)N[C@@H](Cc1c[nH]cn1)C(=O)N[C@@H](CCC(N)=O)C(=O)N[C@@H](CCCNC(=N)N)C(=O)N[C@H](Cc1c[nH]c2ccccc12)C(=O)N[C@@H](CCCCN)C(=O)N[C@@H](Cc1c[nH]c2ccccc12)C(=O)N[C@H](C(=O)N[C@@H](CCC(N)=O)C(=O)N[C@@H](CC(=O)O)C(=O)N[C@@H](C)C(=O)N[C@@H](CCCNC(=N)N)C(=O)N[C@@H](CCCNC(=N)N)C(=O)N[C@@H](CCCNC(=N)N)C(=O)N[C@@H](C)C(=O)N[C@@H](Cc1c[nH]c2ccccc12)C(=O)N[C@@H](CC(C)C)C(=O)N[C@@H](Cc1c[nH]cn1)C(=O)N[C@@H](CCCCN)C(=O)N[C@@H](CC(C)C)C(=O)N[C@H](C(=O)N[C@@H](C)C(=O)N[C@@H](CCC(=O)O)C(=O)N[C@H](C(=O)N[C@@H](Cc1c[nH]cn1)C(=O)N[C@H](C(=O)N[C@@H](C)C(=O)N[C@@H](CCC(=O)O)C(=O)N[C@H](C(N)=O)[C@@H](C)CC)[C@@H](C)O)[C@@H](C)CC)[C@@H](C)CC)[C@@H](C)CC [compound 1949, dW12, W23-LA-PTH(5-36)] (H-IQLMHQR[dW]KWIQDARRRAWLHKLIAEIHTAEI-NH2; N-terminus assumed)
- effect on blood Ca^2+ levels (FIG. 13) (wild-type PTHR [2]): significant reduction of blood Ca^2+ levels
- effect on calcemic response to PTH(1-34) (FIG. 11) (PTHR1): inhibited the capacity of the injected PTH(1-34) agonist to induce a calcemic response
